ChEMBL document CHEMBL5727360, “BCL-2 inhibitors” (2019)

Biological target: Apoptosis regulator Bcl-2 (Homo sapiens, UniProt P10415)
Experiment: Bcl-2 Competition Binding (Fluorescence Polarization) Assay: The fluorescence-labeled 23 amino acid peptide BH3 was purchased from CalBiochem ([…], SEQ ID NO: 1). An unbound Fluorescein labeled BH3 peptide emits random light with respect to the plane of polarization plane of excited light, resulting in a lower polarization degree (mP) value. When the peptide is bound to Bcl-2, the complex tumble slower and the emitted light can have a higher level of polarization, resulting in a higher mP value. This binding assay was performed in 96-well plate and with each assay contained 15 and 30 nM of labeled peptide and purified Bcl-2 protein (purchased from R&D Systems, Inc). The assay buffer contained 20 mM Hepes (pH 7.0), 50 mM KCl, 5 mM MgCl2, 20 mM Na2MoO4, 0.1 mg/ml Bovine Gamma Globulin and 0.01% NP40. Compounds were diluted in DMSO and added to the final assay with concentration range from 20 uM to 2 nM. The polarization degree (mP) value was determined by BioTek Synergy II with background subtraction after 3 hours of incubation at room temperature. IC50 was calculated using Prism software with sigmoidal dose-response curve fitting. ABT-737 was used as reference compound. Such assays, carried out with a range of doses of test compounds, allow the determination of an approximate IC50 value.

Apoptosis regulator Bcl-2, sequence (P10415 whole entry): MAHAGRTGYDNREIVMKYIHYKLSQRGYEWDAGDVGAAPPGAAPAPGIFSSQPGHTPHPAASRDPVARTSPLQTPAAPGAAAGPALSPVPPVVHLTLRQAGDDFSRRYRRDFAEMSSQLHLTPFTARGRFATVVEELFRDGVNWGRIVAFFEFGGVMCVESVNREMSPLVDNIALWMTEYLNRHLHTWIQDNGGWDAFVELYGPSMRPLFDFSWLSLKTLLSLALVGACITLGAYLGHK

IC50, < 10 nM:
CC1(C)CCC(CN2CCN(c3ccc(C(=O)NS(=O)(=O)c4ccc(NC5CCN(C6CCOCC6)CC5)c([N+](=O)[O-])c4)c(-n4ncc5nc6[nH]ccc6cc54)c3)CC2)=C(c2ccc(Cl)cc2)C1, CN1CCC(F)(COc2ccc(S(=O)(=O)NC(=O)c3ccc(N4CCN(CC5=C(c6ccc(Cl)cc6)CC(C)(C)CC5)CC4)cc3-n3ncc4nc5[nH]ccc5cc43)cc2[N+](=O)[O-])CC1, CC1(C)CCC(CN2CCN(c3ccc(C(=O)NS(=O)(=O)c4ccc(NCCCN5CCOCC5)c([N+](=O)[O-])c4)c(-n4ncc5nc6[nH]ccc6cc54)c3)CC2)=C(c2ccc(Cl)cc2)C1
